Reference: patent US20200253877A1, “GEMCABENE, PHARMACEUTICALLY ACCEPTABLE SALTS THEREOF, COMPOSITIONS THEREOF AND METHODS OF USE THEREFOR” (NEUROBO PHARMACEUTICALS, INC., priority 2018, published 2020)

Assays:
[1] = system: STAM™ mice, a murine model of NASH-HCC; test: Murine STAM model of NASH-HCC: liver histology (H&E, NAFLD Activity Score, Sirius red fibrosis area); assay type: in vivo, mouse; design: key to NAS (mean ± SD) / NAFLD Activity Score: NAS = unweighted sum of steatosis, lobular inflammation, ballooning scores; details: for Lobular Inflammation score 0: number of mice: score 0 = No foci; for Hepatocyte Ballooning score 0: number of mice: score 0 = None; for Steatosis score 1: number of mice: score 1 = 5-33%; for Hepatocyte Ballooning score 1: number of mice: score 1 = Few balloon cells; for Lobular Inflammation score 2: number of mice: score 2 = 2-4 foci/200x; for Hepatocyte Ballooning score 2: number of mice: score 2 = Many cells/prominent ballooning; for NAFLD Activity Score / Sirius red-positive area: STAM mice
From the text: The present invention further provides methods for reducing a fibrosis score or a nonalcoholic fatty liver disease activity score in a subject, comprising administering to a subject in need thereof an effective amount of a tablet of the invention, gemcabene calcium salt hydrate Crystal Form 4, gemcabene calcium salt hydrate Crystal Form 5 or gemcabene calcium salt hydrate Crystal Form 6. The nonalcoholic fatty liver disease activity score (NAS or NAFLD score) is a composite score that measures changes in NAFLD during therapeutic trials. NAS is a composite score comprised of three components that includes scores for steatosis, lobular inflammation and hepatocyte ballooning (Table 36). NAS is the unweighted sum of the scores for steatosis, lobular inflammation and hepatocyte ballooning. Steatosis grade is quantified as the percentage of hepatocytes that contain fat droplets. The fibrosis stage of the liver is evaluated separately from NAS by histological evaluation of the intensity of Sirius red staining of collagen in the pericentral region of liver lobules.
A study was performed to evaluate the efficacy of gemcabene calcium salt hydrate Crystal Form 1 having a PSD90 of 52 μm as measured by laser light diffraction, in treating non-alcoholic steatosis hepatitis (NASH) in the murine STAM™ model of NASH-HCC.
Briefly, two-day old neonatal C57BL/6 male mice were administered low-dose streptozotocin (STZ), and were subsequently fed a HFC diet from 4 weeks of age. In this model, the mice typically develop liver steatosis and diabetes, reaching steatohepatitis within 3 weeks, followed by cirrhosis within 8 weeks, and carcinoma within 16 weeks. In the current study, mice were administered daily oral gemcabene calcium salt hydrate Crystal Form 1 starting at week 6 of age and were sacrificed at week 9. […] These STAM™ groups were orally administered from week 6 one of the following: water-vehicle, gemcabene calcium salt hydrate Crystal Form 1 at 30, 100 and 300 mg/kg daily, or telmisartan ([…]®) 10 mg/kg daily. […] All groups were sacrificed at week 9. Vehicle, gemcabene calcium salt hydrate Crystal Form 1, or telmisartan were administered by oral gavage once daily.
For Hematoxylin and Eosin (H&E) staining, sections were cut from paraffin blocks of liver tissue prefixed in Bouin's solution and stained with Lillie-Mayer's Hematoxylin (Muto Pure Chemicals Co., Ltd., Japan) and eosin solution (Wako Pure Chemical Industries). NAFLD Activity score (NAS) was calculated according to the criteria of Kleiner, D E. Et al., Hepatology, 2005; 41:1313-1321. To visualize collagen deposition, Bouin's fixed liver sections were stained using picro-Sirius red solution (Waldeck, Germany). For Masson Trichrome staining, the sections were stained with Masson's Trichrome staining Kit (Sigma, USA) according to the manufacturer's instructions.
For quantitative analysis of fibrosis area, bright field images of Sirius red-stained sections were captured around the central vein using a digital camera (DFC295; Leica, Germany) at 200-fold magnification, and the positive areas in 5 fields/section were measured using ImageJ software (National Institute of Health, USA). Samples were analyzed in a blinded fashion.

[2] = system: STAM™ mice, a murine model of NASH-HCC; test: Murine STAM model of NASH-HCC: whole blood, plasma and liver biochemistry; details: mean ± SD, n = 8; for Fasting blood glucose / Plasma insulin: Day 18 after 8 hours of fasting; for Liver free fatty acid / Liver hydroxyproline / Liver triglyceride / Non-fasting blood glucose / Plasma ApoC-III / Plasma CRP / Plasma adiponectin / Plasma alanine aminotransferase / Plasma alkaline phosphatase / Plasma aspartate aminotransferase / Plasma blood urea nitrogen / Plasma creatinine / Plasma gamma-glutamyl transferase / Plasma ketone body / Plasma leptin / Plasma total bilirubin / Plasma total cholesterol / Plasma triglyceride: at termination (Day 21)

CC(C)(CCCCOCCCCC(C)(C)C(=O)O)C(=O)O [gemcabene, 6-(5-carboxy-5-methyl-hexyloxy)-2,2-dimethyl-hexanoic acid]
Lobular Inflammation score 1: number of mice ([1]; 30 mg/kg PO QD, n = 8): 2 | NAS (mean ± SD) ([1]; 30 mg/kg PO QD, n = 8): 3.4 ± 1.1 | Lobular Inflammation score 0: number of mice ([1]; 30 mg/kg PO QD, n = 8): 1 | Hepatocyte Ballooning score 0: number of mice ([1]; 30 mg/kg PO QD, n = 8): 4 | Steatosis score 1: number of mice ([1]; 30 mg/kg PO QD, n = 8): 8 | Hepatocyte Ballooning score 1: number of mice ([1]; 30 mg/kg PO QD, n = 8): 2 | Lobular Inflammation score 2: number of mice ([1]; 30 mg/kg PO QD, n = 8): 4 | Hepatocyte Ballooning score 2: number of mice ([1]; 30 mg/kg PO QD, n = 8): 2 | Lobular Inflammation score 3: number of mice ([1]; 30 mg/kg PO QD, n = 8, score 3 = >4 foci/200x): 1 | NAFLD Activity Score ([1]; 30 mg/kg): 3.4 | Sirius red-positive area ([1]; 30 mg/kg): 0.56% | Lobular Inflammation score 1: number of mice ([1]; 100 mg/kg PO QD, n = 8): 1 | NAS (mean ± SD) ([1]; 100 mg/kg PO QD, n = 8): 3.6 ± 1.4 | Lobular Inflammation score 0: number of mice ([1]; 100 mg/kg PO QD, n = 8): 2 | Hepatocyte Ballooning score 0: number of mice ([1]; 100 mg/kg PO QD, n = 8): 1 | Steatosis score 1: number of mice ([1]; 100 mg/kg PO QD, n = 8): 8 | Hepatocyte Ballooning score 1: number of mice ([1]; 100 mg/kg PO QD, n = 8): 4 | Lobular Inflammation score 2: number of mice ([1]; 100 mg/kg PO QD, n = 8): 5 | Hepatocyte Ballooning score 2: number of mice ([1]; 100 mg/kg PO QD, n = 8): 3 | NAFLD Activity Score ([1]; 100 mg/kg): 3.6 | Sirius red-positive area ([1]; 100 mg/kg): 0.53% | Lobular Inflammation score 1: number of mice ([1]; 300 mg/kg PO QD, n = 8): 2 | NAS (mean ± SD) ([1]; 300 mg/kg PO QD, n = 8): 2.5 ± 0.8 | Steatosis score 0: number of mice ([1]; 300 mg/kg PO QD, n = 8, score 0 = <5%): 3 | Lobular Inflammation score 0: number of mice ([1]; 300 mg/kg PO QD, n = 8): 2 | Hepatocyte Ballooning score 0: number of mice ([1]; 300 mg/kg PO QD, n = 8): 4 | Steatosis score 1: number of mice ([1]; 300 mg/kg PO QD, n = 8): 5 | Hepatocyte Ballooning score 1: number of mice ([1]; 300 mg/kg PO QD, n = 8): 3 | Lobular Inflammation score 2: number of mice ([1]; 300 mg/kg PO QD, n = 8): 4 | Hepatocyte Ballooning score 2: number of mice ([1]; 300 mg/kg PO QD, n = 8): 1 | NAFLD Activity Score ([1]; 300 mg/kg): 2.5 | Sirius red-positive area ([1]; 300 mg/kg): 0.59% | Fasting blood glucose ([2]; 30 mg/kg PO QD): 437 ± 42 mg/dL | Plasma insulin ([2]; 30 mg/kg PO QD): 0.13 ± 0.04 ng/mL | Liver free fatty acid ([2]; 30 mg/kg PO QD): 35.1 ± 8.4 pEq/g liver | Liver hydroxyproline ([2]; 30 mg/kg PO QD): 0.66 ± 0.12 μg/mg total protein | Liver triglyceride ([2]; 30 mg/kg PO QD): 49.2 ± 8.6 mg/g liver | Non-fasting blood glucose ([2]; 30 mg/kg PO QD): 607 ± 48 mg/dL | Plasma ApoC-III ([2]; 30 mg/kg PO QD): 6.6 ± 0.8 gg/mL | Plasma CRP ([2]; 30 mg/kg PO QD): 2.5 ± 0.3 gg/mL | Plasma adiponectin ([2]; 30 mg/kg PO QD): 4.1 ± 0.9 gg/mL | Plasma alanine aminotransferase ([2]; 30 mg/kg PO QD): 41 ± 15 U/L | Plasma alkaline phosphatase ([2]; 30 mg/kg PO QD): 382 ± 78 U/L | Plasma aspartate aminotransferase ([2]; 30 mg/kg PO QD): 100 ± 44 U/L | Plasma blood urea nitrogen ([2]; 30 mg/kg PO QD): 25.0 ± 3.9 mg/dL | Plasma creatinine ([2]; 30 mg/kg PO QD): 0.1 ± 0.0 mg/dL | Plasma gamma-glutamyl transferase ([2]; 30 mg/kg PO QD): 1 ± 0 U/L | Plasma ketone body ([2]; 30 mg/kg PO QD): 9.43 ± 2.35 m M | Plasma leptin ([2]; 30 mg/kg PO QD): 3.1 ± 1.2 ng/mL | Plasma total bilirubin ([2]; 30 mg/kg PO QD): 0.2 ± 0.1 mg/dL | Plasma total cholesterol ([2]; 30 mg/kg PO QD): 194 ± 17 mg/dL | Plasma triglyceride ([2]; 30 mg/kg PO QD): 319 ± 198 mg/dL | Fasting blood glucose ([2]; 100 mg/kg PO QD): 441 ± 46 mg/dL | Plasma insulin ([2]; 100 mg/kg PO QD): 0.17 ± 0.06 ng/mL | Liver free fatty acid ([2]; 100 mg/kg PO QD): 38.4 ± 8.5 pEq/g liver | Liver hydroxyproline ([2]; 100 mg/kg PO QD): 0.74 ± 0.38 μg/mg total protein | Liver triglyceride ([2]; 100 mg/kg PO QD): 58.4 ± 14.5 mg/g liver | Non-fasting blood glucose ([2]; 100 mg/kg PO QD): 653 ± 53 mg/dL | Plasma ApoC-III ([2]; 100 mg/kg PO QD): 6.0 ± 2.5 gg/mL | Plasma CRP ([2]; 100 mg/kg PO QD): 1.9 ± 0.3 gg/mL | Plasma adiponectin ([2]; 100 mg/kg PO QD): 4.1 ± 0.5 gg/mL | Plasma alanine aminotransferase ([2]; 100 mg/kg PO QD): 27 ± 7 U/L | Plasma alkaline phosphatase ([2]; 100 mg/kg PO QD): 642 ± 167 U/L | Plasma aspartate aminotransferase ([2]; 100 mg/kg PO QD): 88 ± 32 U/L | Plasma blood urea nitrogen ([2]; 100 mg/kg PO QD): 29.8 ± 4.3 mg/dL | Plasma creatinine ([2]; 100 mg/kg PO QD): 0.1 ± 0.1 mg/dL | Plasma gamma-glutamyl transferase ([2]; 100 mg/kg PO QD): 1 ± 0 U/L | Plasma ketone body ([2]; 100 mg/kg PO QD): 5.75 ± 3.24 m M | Plasma leptin ([2]; 100 mg/kg PO QD): 4.3 ± 1.2 ng/mL | Plasma total bilirubin ([2]; 100 mg/kg PO QD): 0.3 ± 0.2 mg/dL | Plasma total cholesterol ([2]; 100 mg/kg PO QD): 228 ± 37 mg/dL | Plasma triglyceride ([2]; 100 mg/kg PO QD): 191 ± 57 mg/dL | Fasting blood glucose ([2]; 300 mg/kg PO QD): 407 ± 15 mg/dL | Plasma insulin ([2]; 300 mg/kg PO QD): 0.13 ± 0.04 ng/mL | Liver free fatty acid ([2]; 300 mg/kg PO QD): 46.0 ± 5.5 pEq/g liver | Liver hydroxyproline ([2]; 300 mg/kg PO QD): 0.70 ± 0.10 μg/mg total protein | Liver triglyceride ([2]; 300 mg/kg PO QD): 56.0 ± 13.9 mg/g liver | Non-fasting blood glucose ([2]; 300 mg/kg PO QD): 638 ± 63 mg/dL | Plasma ApoC-III ([2]; 300 mg/kg PO QD): 6.2 ± 0.7 gg/mL | Plasma CRP ([2]; 300 mg/kg PO QD): 1.9 ± 0.4 gg/mL | Plasma adiponectin ([2]; 300 mg/kg PO QD): 4.9 ± 0.5 gg/mL | Plasma alanine aminotransferase ([2]; 300 mg/kg PO QD): 32 ± 14 U/L | Plasma alkaline phosphatase ([2]; 300 mg/kg PO QD): 794 ± 57 U/L | Plasma aspartate aminotransferase ([2]; 300 mg/kg PO QD): 147 ± 122 U/L | Plasma blood urea nitrogen ([2]; 300 mg/kg PO QD): 30.1 ± 5.8 mg/dL | Plasma creatinine ([2]; 300 mg/kg PO QD): 0.2 ± 0.1 mg/dL | Plasma gamma-glutamyl transferase ([2]; 300 mg/kg PO QD): 1 ± 0 U/L | Plasma ketone body ([2]; 300 mg/kg PO QD): 5.68 ± 3.08 m M | Plasma leptin ([2]; 300 mg/kg PO QD): 3.2 ± 1.1 ng/mL | Plasma total bilirubin ([2]; 300 mg/kg PO QD): 0.3 ± 0.1 mg/dL | Plasma total cholesterol ([2]; 300 mg/kg PO QD): 234 ± 45 mg/dL | Plasma triglyceride ([2]; 300 mg/kg PO QD): 149 ± 32 mg/dL
